Experimental data reported in US6156700A, “3-(1,2-Benzisothiazol- and isoxazol-5-yl)-2,4(1H,3H)-pyrimidinedione or thione and 3-(1,2-benzisothiazol- and isoxazol-5-yl)-4(3H)-pyrimidinone or thione herbicidal agents” (American Cyanmid Company, priority 1998, dated 2000).

Assays:
[1] = system: Velvetleaf, Abutilon theophrasti; assay: Postemergence herbicidal evaluation, ABUTH; format: in vivo, Medic.; details: 0.2500 kg/ha
Outline: (§1)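 Plants were raised for roughly two weeks, then treated by spraying at 40 psi with test compound dispersed in 50/50 acetone/water with 0.5% TWEEN 20, giving about 0.0157 to 0.500 kg/ha. After four to five weeks in the greenhouse they were scored 0–9 against a control.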

[2] = system: SAGPY Arrowhead (Pygmaea); assay: Postemergence weed control, flooded paddy (Table IV); format: in vivo, Sagittaria pygmaea; design: scale not given here
Text: (§2) Plastic containers containing weeds which are 3 to 5 cm tall and rice seedlings at the 1.5 to 2.5 leaf stage are flooded with water. The water is maintained at 1.5 to 3 cm above the soil surface for the duration of the experiment. Test compounds are applied as aqueous/acetone mixtures 50/50 v/v directly into the flood water to provide the equivalent of about 0.0313 to 0.500 kg/ha of active ingredient. The treated containers are placed on greenhouse benches and cared for in accordance with conventional greenhouse procedures. Three to four weeks after treatment, the test is terminated and each container is examined and herbicidal effect rated according to the rating system provided in Example 185. The compounds evaluated are reported by compound number given in Example 185.

[3] = system: Foxtail, Green, Setaria viridis; assay: Preemergence herbicidal evaluation, SETVI; format: in vivo, (L.) Beau; details: 0.2500 kg/ha
Text: (§3) Results of herbicide evaluation are expressed on a rating scale (0-9). The scale is based upon a visual observation of plant stand, vigor, malformation, size, chlorosis and overall plant appearance as compared with a control.
(§4) The preemergence herbicidal activity of the test compounds of the present invention is exemplified by the following tests in which the seeds of a variety of monocotyledonous and dicotyledonous plants are separately mixed with potting soil and planted on top of approximately one inch of soil in separate pint cups. After planting, the cups are sprayed with the selected aqueous acetone solution containing test compound in sufficient quantity to provide the equivalent of about 0.0156 to 0.500 kg per hectare of test compound per cup. The treated cups are then placed on greenhouse benches, watered and cared for in accordance with conventional greenhouse procedures. From four to five weeks after treatment, the tests are terminated and each cup is examined and rated according to the rating system provided in Example 185.
(§5) The compounds evaluated are reported by compound number given in Example 185.

[4] = system: Barnyardgrass, Echinochloa crus-galli; assay: Preemergence herbicidal evaluation, ECHCG; format: in vivo, (L.) Beau; details: 0.2500 kg/ha
Text: as §3, §4, §5

Galium, Galium aparine = assay: Postemergence herbicidal evaluation, GALAP; format: in vivo; details: 0.2500 kg/ha
Outline: as §1

CYPIR Rice Flatsedge = assay: Postemergence weed control, flooded paddy (Table IV); format: in vivo, Cyperus iria; design: scale not given here
Text: as §2

[5] = system: Ragweed, Common, Ambrosia artemisifolia; assay: Preemergence herbicidal evaluation, AMBEL; format: in vivo, L.; details: 0.2500 kg/ha
Text: as §3, §4, §5

[6] = system: Barnyardgrass, Echinochloa crus-galli; assay: Postemergence herbicidal evaluation, ECHCG; format: in vivo, (L.) Beau; details: 0.2500 kg/ha
Outline: as §1

CYPSE Flatsedge [7] = assay: Postemergence weed control, flooded paddy (Table IV); format: in vivo, Cyperus serotinus; design: scale not given here
Text: as §2

MOOVA Monochoria [8] = assay: Preemergence weed control, flooded paddy (Table III); format: in vivo, Monochoria vaginalis; design: scale not given here
Protocol: (§6) Preemergence herbicidal activity under flooded paddy conditions is determined as follows: plant seeds or propagating organs are planted in the top 0.5 cm of silt loam soil in 32 oz. plastic containers with a diameter of 10.5 cm and no drainage holes. Water is added to these containers and maintained at 1.5 to 3 cm above the soil surface for the duration of the experiment. The test compounds are applied as aqueous/acetone mixtures 50/50 v/v pipetted directly into the flood water to give the equivalent of about 0.0313 to 0.500 kg/ha of active ingredient. The treated containers are placed on greenhouse benches and cared for in accordance with conventional greenhouse procedures. Three to four weeks after treatment, the test is terminated and each container is examined and herbicidal effect rated according to the rating system provided in Example 185. The compounds evaluated are reported by compound number given in Example 185.

[9] = system: Morningglory Spp., Ipomoea Spp.; assay: Preemergence herbicidal evaluation, IPOSS; format: in vivo; details: 0.2500 kg/ha
Text: as §3, §4, §5

[10] = system: Foxtail, Green, Setaria viridis; assay: Postemergence herbicidal evaluation, SETVI; format: in vivo, (L.) Beau; details: 0.2500 kg/ha
Outline: as §1

MOOVA Monochoria [11] = assay: Postemergence weed control, flooded paddy (Table IV); format: in vivo, Monochoria vaginalis; design: scale not given here
Text: as §2

CYPSE Flatsedge [12] = assay: Preemergence weed control, flooded paddy (Table III); format: in vivo, Cyperus serotinus; design: scale not given here
Protocol: as §6

[13] = system: Velvetleaf, Abutilon theophrasti; assay: Preemergence herbicidal evaluation, ABUTH; format: in vivo, Medic.; details: 0.2500 kg/ha
Text: as §3, §4, §5

[14] = system: Rice, Tebonnet, Oryza sativa; assay: Postemergence herbicidal evaluation, ORYSAT; format: in vivo, (L.) Tebonnet; details: 0.2500 kg/ha
Outline: as §1

[15] = system: Soybean, Williams, Glycine max; assay: Postemergence herbicidal evaluation, GLXMAW; format: in vivo, (L.) Merr. cv Williams; details: 0.2500 kg/ha
Outline: as §1

[16] = system: Lambsquarters, Common, Chenopodium album; assay: Postemergence herbicidal evaluation, CHEAL; format: in vivo, L.; details: 0.2500 kg/ha
Outline: as §1

Compound | herbicide rating (0-9) [1] | herbicidal effect rating ([2]; 0.1250 kg/ha) | herbicidal effect rating ([2]; 0.2500 kg/ha) | herbicidal effect rating ([2]; 0.5000 kg/ha) | herbicide rating (0-9) [3] | herbicide rating (0-9) [4] | herbicide rating (0-9) (Galium, Galium aparine) | herbicidal effect rating (CYPIR Rice Flatsedge; 0.1250 kg/ha) | herbicidal effect rating (CYPIR Rice Flatsedge; 0.2500 kg/ha) | herbicidal effect rating (CYPIR Rice Flatsedge; 0.5000 kg/ha) | herbicide rating (0-9) [5] | herbicide rating (0-9) [6] | herbicidal effect rating (CYPSE Flatsedge [7]; 0.1250 kg/ha) | herbicidal effect rating (CYPSE Flatsedge [7]; 0.2500 kg/ha) | herbicidal effect rating (CYPSE Flatsedge [7]; 0.5000 kg/ha) | herbicidal effect rating (MOOVA Monochoria [8]; 0.0313 kg/ha) | herbicidal effect rating (MOOVA Monochoria [8]; 0.0625 kg/ha) | herbicidal effect rating (MOOVA Monochoria [8]; 0.1250 kg/ha) | herbicidal effect rating (MOOVA Monochoria [8]; 0.2500 kg/ha) | herbicidal effect rating (MOOVA Monochoria [8]; 0.5000 kg/ha) | other results
COC(=O)C(C)Oc1cc(C)ccc1-c1nsc2ccc(-n3c(=O)cc(C(F)(F)F)n(C)c3=O)cc12 (stereo not shown) [Compound 9, Methyl 2-{{6-{5-[3,6-dihydro-3-methyl-4-(trifluoromethyl)-2,6-dioxo-1(2H)-pyrimidinyl]-1,2-benzisothiazol-3-yl}-m-tolyl}oxy}propionate] | 9.0 | 2.0 | 9.0 | 9.0 | 9.0 | 9.0 | 8.0 | 9.0 | 9.0 | 9.0 | 9.0 | 9.0 | 2.0 | 7.0 | 9.0 | 9.0 | 9.0 | 9.0 | 9.0 | 9.0 | herbicide rating (0-9) [9]: 9.0; herbicide rating (0-9) [10]: 9.0; herbicidal effect rating (MOOVA Monochoria [11]; 0.1250 kg/ha): 9.0; herbicidal effect rating (MOOVA Monochoria [11]; 0.2500 kg/ha): 9.0; herbicidal effect rating (MOOVA Monochoria [11]; 0.5000 kg/ha): 9.0; herbicidal effect rating (CYPSE Flatsedge [12]; 0.0313 kg/ha): 2.0; herbicidal effect rating (CYPSE Flatsedge [12]; 0.0625 kg/ha): 4.0; herbicidal effect rating (CYPSE Flatsedge [12]; 0.1250 kg/ha): 9.0; herbicidal effect rating (CYPSE Flatsedge [12]; 0.2500 kg/ha): 9.0; herbicidal effect rating (CYPSE Flatsedge [12]; 0.5000 kg/ha): 9.0; herbicide rating (0-9) [13]: 9.0; herbicide rating (0-9) [14]: 9.0; herbicide rating (0-9) [15]: 9.0
COC(=O)C(C)Oc1cc(C)c(C)cc1-c1nsc2ccc(-n3c(=O)cc(C(F)(F)F)n(C)c3=O)cc12 (stereo not shown) [Compound 13, Methyl 2-{{6-{5-[3,6-dihydro-3-methyl-4-(trifluoromethyl)-2,6-dioxo-1(2H)-pyrimidinyl]-1,2-benzisothiazol-3-yl}-3,4-xylyl}oxy}propionate] | 9.0 | 2.0 | 2.0 | 9.0 | 9.0 | 9.0 | 8.0 | 9.0 | 9.0 | 9.0 | 9.0 | 9.0 | 2.0 | 4.0 | 2.0 | 9.0 | 9.0 | 9.0 | 9.0 | 9.0 | herbicide rating (0-9) [16]: 9.0; herbicide rating (0-9) [9]: 9.0; herbicide rating (0-9) [10]: 9.0; herbicidal effect rating (MOOVA Monochoria [11]; 0.1250 kg/ha): 9.0; herbicidal effect rating (MOOVA Monochoria [11]; 0.2500 kg/ha): 9.0; herbicidal effect rating (MOOVA Monochoria [11]; 0.5000 kg/ha): 9.0; herbicidal effect rating (CYPSE Flatsedge [12]; 0.0313 kg/ha): 0.0; herbicidal effect rating (CYPSE Flatsedge [12]; 0.0625 kg/ha): 2.0; herbicidal effect rating (CYPSE Flatsedge [12]; 0.1250 kg/ha): 7.0; herbicidal effect rating (CYPSE Flatsedge [12]; 0.2500 kg/ha): 7.0; herbicidal effect rating (CYPSE Flatsedge [12]; 0.5000 kg/ha): 7.0; herbicide rating (0-9) [13]: 9.0; herbicide rating (0-9) [14]: 8.0; herbicide rating (0-9) [15]: 8.5
